Converted amounts (≈) assume the structure as drawn.
Experiments:
Staphylococcus aureus [1] = experiment: Antibacterial activity against methicillin resistant Staphylococcus aureus 5288/13 assessed as reduction in bacterial growth measured after 24 hrs by spectrophotometer based analysis; type: functional
[2] = tested on: Staphylococcus epidermidis; experiment: Antibacterial activity against Staphylococcus epidermidis ATCC 12228 assessed as reduction in bacterial growth measured after 24 hrs by spectrophotometer based analysis; type: functional
Staphylococcus aureus [3] = experiment: Antibacterial activity against methicillin resistant Staphylococcus aureus 4811/13 assessed as reduction in bacterial growth measured after 24 hrs by spectrophotometer based analysis; type: functional
Staphylococcus aureus [4] = experiment: Antibacterial activity against methicillin resistant Staphylococcus aureus 401/5 assessed as reduction in bacterial growth measured after 24 hrs by spectrophotometer based analysis; type: functional
Enterococcus faecalis = experiment: Antibacterial activity against Enterococcus faecalis ATCC 14506 assessed as reduction in bacterial growth measured after 24 hrs by spectrophotometer based analysis; type: functional
Staphylococcus aureus [5] = experiment: Antibacterial activity against Staphylococcus aureus ATCC 29213 assessed as reduction in bacterial growth measured after 24 hrs by spectrophotometer based analysis; type: functional
[6] = Aggregation property of compound in PBS assessed as critical aggregation concentration; type: physicochemical; conditions: buffer
[7] = Proteolytic stability of the compound in human serum assessed as drug degradation measured after 96 hrs by RP-HPLC analysis; type: ADME, cell-free; conditions: read-out: Drug degradation
Klebsiella pneumoniae = experiment: Antibacterial activity against Klebsiella pneumoniae PCM 1 assessed as reduction in bacterial growth measured after 24 hrs by spectrophotometer based analysis; type: functional
[8] = Proteolytic stability of the compound in human serum assessed as drug degradation measured after 24 hrs by RP-HPLC analysis; type: ADME, cell-free; conditions: read-out: Drug degradation
Escherichia coli = experiment: Antibacterial activity against Escherichia coli ST2-8624 O157 H7 assessed as reduction in bacterial growth measured after 24 hrs by spectrophotometer based analysis; type: functional
Pseudomonas aeruginosa = experiment: Antibacterial activity against Pseudomonas aeruginosa PA01 PCM 499 assessed as reduction in bacterial growth measured after 24 hrs by spectrophotometer based analysis; type: functional
Salmonella typhimurium = experiment: Antibacterial activity against Salmonella enterica subsp. enterica serovar Typhimurium TT622 assessed as reduction in bacterial growth measured after 24 hrs by spectrophotometer based analysis; type: functional
Yersinia enterocolitica = experiment: Antibacterial activity against Yersinia enterocolitica PCM 2081 assessed as reduction in bacterial growth measured after 24 hrs by spectrophotometer based analysis; type: functional
[9] = Proteolytic stability of the compound in human serum assessed as drug degradation measured within 4 hrs by RP-HPLC analysis; type: ADME, cell-free

SMILES | MIC (Staphylococcus aureus [1]) [µg/mL] | MIC [2] [µg/mL] | MIC (Staphylococcus aureus [3]) [µg/mL] | MIC (Staphylococcus aureus [4]) [µg/mL] | MIC (Enterococcus faecalis) [µg/mL] | MIC (Staphylococcus aureus [5]) [µg/mL] | CAC [6] [µM] | metabolised at 96 h [7] [%] | MIC (Klebsiella pneumoniae) [µg/mL] | metabolised at 24 h [8] [%] | MIC (Escherichia coli) [µg/mL] | MIC (Pseudomonas aeruginosa) [µg/mL] | MIC (Salmonella typhimurium) [µg/mL] | MIC (Yersinia enterocolitica) [µg/mL] | Stability [9]
CCCCCCCCCC(=O)N[C@@H](Cc1c[nH]c2ccccc12)C(=O)N[C@H](CC(N)=O)C(=O)N[C@@H](CC(=O)O)C(=O)N[C@@H]1C(=O)NCC(=O)N[C@@H](CCCN)C(=O)N[C@@H](CC(=O)O)C(=O)N[C@H](C)C(=O)N[C@@H](CC(=O)O)C(=O)NCC(=O)N[C@H](CO)C(=O)N[C@@H]([C@H](C)CC(=O)O)C(=O)N[C@@H](CC(=O)c2ccccc2N)C(=O)O[C@@H]1C | 2 (≈ 1.23 µM) | 1 (≈ 0.617 µM) | 2 (≈ 1.23 µM) | 1.5 (≈ 0.926 µM) | 3.5 (≈ 2.16 µM) | 2 (≈ 1.23 µM) |  |  |  |  |  |  |  |  | 
CCCCCCCCCC(=O)N[C@H](CNC(=O)N[C@@H](CCCCN)CNC(=O)N[C@@H](CCCCN)CN[C@H](CNC(=O)N[C@@H](CCCCN)CNC(N)=O)CC(C)C)Cc1ccccc1 | 40 (≈ 43.6 µM) | 30 (≈ 32.7 µM) | 30 (≈ 32.7 µM) | 30 (≈ 32.7 µM) |  | 30 (≈ 32.7 µM) | 79 | 15 |  |  |  |  |  |  | 
CCCCCCCCCC(=O)N[C@H](CNC(=O)N[C@@H](CCN)CNC(=O)N[C@H](CN[C@H](CNC(=O)N[C@@H](CCN)CNC(N)=O)CC(C)C)CC(C)C)Cc1ccccc1 | 5 (≈ 5.9 µM) | 5 (≈ 5.9 µM) | 5 (≈ 5.9 µM) | 5 (≈ 5.9 µM) | 5 (≈ 5.9 µM) | 5 (≈ 5.9 µM) | 40 | 8 | 20 (≈ 23.6 µM) | 4 | 10 (≈ 11.8 µM) | 10 (≈ 11.8 µM) | 20 (≈ 23.6 µM) | 10 (≈ 11.8 µM) | 
CCCCCCCCCC(=O)N[C@H](CNC(=O)N[C@@H](CCN)CNC(=O)N[C@@H](CCN)CN[C@H](CNC(=O)N[C@@H](CCN)CNC(N)=O)CC(C)C)Cc1ccccc1 | 30 (≈ 36 µM) | 20 (≈ 24 µM) | 30 (≈ 36 µM) | 20 (≈ 24 µM) | 40 (≈ 48 µM) | 20 (≈ 24 µM) | 87 | 8 |  |  |  |  |  |  | 
CCCCCCCCCC(=O)N[C@H](CNC(=O)N[C@@H](CCN)CNC(=O)N[C@@H](CCN)CN[C@H](CNC(=O)N[C@H](CNC(N)=O)CC(C)C)CC(C)C)Cc1ccccc1 | 10 (≈ 11.8 µM) | 10 (≈ 11.8 µM) | 10 (≈ 11.8 µM) | 10 (≈ 11.8 µM) | 20 (≈ 23.6 µM) | 10 (≈ 11.8 µM) | 56 | 8 | 30 (≈ 35.4 µM) |  | 30 (≈ 35.4 µM) | 30 (≈ 35.4 µM) | 30 (≈ 35.4 µM) | 30 (≈ 35.4 µM) | 
NC(=O)[C@H](Cc1ccccc1)NC(=O)[C@H](Cc1ccccc1)NC(=O)[C@@H]1CCCN1C(=O)[C@@H](N)Cc1ccc(O)cc1 [ENDOMORPHIN 2] |  |  |  |  |  |  |  |  |  |  |  |  |  |  | Unstable

Reference: ChEMBL document CHEMBL5625212, “De novo designed self-assembling helicomimetic lipooligoureas with antibacterial activity” (Eur J Med Chem, 2023)
